This note sets out measurements from patent US20220168430A1, “THERAPEUTIC METHODS FOR TREATING HEPATITIS B” (priority 2019, published 2022).

Molecules are shown by their SMILES.

The subject of experiment [1] is HBsAg. Put plainly: Serum HBsAg in pHBV1.3 hydrodynamic injection mouse model of HBV (Example 12). Conditions: once daily oral from Day 0: RNA destabilizer 10 mg/kg, encapsidation inhibitor 100 mg/kg, nucleos(t)ide analog 0.4 mg/kg, group mean ± SEM, n=7 or 8, from negative control. It counts as in vivo, NOD.CB17-Prkdc scid/J mice; HBV genotype D, serotype ayw. As to the method:
(§1) On Day −7, 10 micrograms of the plasmid pHBV1.3 (constructed based on details provided in Guidotti, L., et al., Journal of Virology, 1995, 69(10): 6158-6169) was administered to NOD.CB 17-Prkdc^scid/J mice via hydrodynamic injection (HDI; rapid 1.6 mL injection into the tail vein). […] As readouts of the anti-HBV effect of the treatments, serum HBV DNA and serum HBsAg were assessed. Serum HBV DNA concentration in mice was measured using a quantitative PCR assay following total DNA extraction using previously published primers and probe sequences (Tanaka, Y., et al., Journal of Medical Virology, 2004, 72: 223-229). Serum HBsAg concentration in mice was measured using a commercially available ELISA kit (HBsAg EIA 3.0 480 Test Kit, Bio-Rad).
(§2) Animals were treated with RNA destabilizer as follows: Starting on Day 0, a 10 mg/kg dosage of RNA destabilizer was administered orally to animals on a once-daily frequency for a total of seven doses across the duration of the study. Animals were treated with encapsidation inhibitor as follows: Starting on Day 0, a 100 mg/kg dosage of encapsidation inhibitor was administered orally to animals on a once-daily frequency for a total of seven doses across the duration of the study. Animals were treated with nucleos(t)ide analog as follows: Starting on Day 0, a 0.4 mg/kg dosage of nucleos(t)ide analog was administered orally to animals on a once-daily frequency for a total of seven doses across the duration of the study. The RNA destabilizer, the encapsidation inhibitor, and nucleos(t)ide analog were each dissolved in the same co-solvent formulation for administration and negative control animals were administered the co-solvent formulation alone. To calculate treatment-specific effects, the treated groups are compared against negative control (vehicle treated) animals.
(§3) The effect of these treatments was determined by collecting blood on Days −1 (prior to study's treatment phase), 4, and 7 and analyzing it for serum HBV DNA and HBsAg content.

Experiment [2] relates to HBV DNA. Put plainly: Serum HBV DNA in pHBV1.3 hydrodynamic injection mouse model of HBV (Example 12). It counts as in vivo, NOD.CB17-Prkdc scid/J mice; HBV genotype D, serotype ayw. The settings on record: once daily oral from Day 0: RNA destabilizer 10 mg/kg, encapsidation inhibitor 100 mg/kg, nucleos(t)ide analog 0.4 mg/kg, group mean ± SEM, n=7 or 8, from negative control. As to the method:
as §1, §2, §3

For the compound `CC(C)OC(=O)OCOP(=O)(CO[C@H](C)Cn1cnc2c(N)ncnc21)OCOC(=O)OC(C)C.O=C(O)/C=C/C(=O)O` [TDF, tenofovir disoproxil fumarate, reference compound], the “Serum HBsAg log reduction” value in experiment [1] (Day 4) was −0.01 ± 0.12 log; in experiment [1] (Day 7), 0.10 ± 0.07 log. For the same compound, the figures for the “Serum HBV DNA log reduction” value in experiment [2] (Day 4) and in experiment [2] (Day 7) were 1.2 ± 0.2 log and 1.7 ± 0.1 log, respectively.
